Data from patent US10772879B2, “Pharmaceutical formulations” (TORRENT PHARMACEUTICALS LIMITED, priority 2015, dated 2020).

What was measured:
[1] = Oral bioavailability in rats (data on file); type: in vivo; settings: administered orally to rats
[2] = tested on: animal models of Type II diabetes; settings: cited from earlier work
[3] = phase I clinical studies, humans; cited from earlier work
[4] = clinical studies, administered orally; cited from earlier work
[5] = Assessment of oral pharmacokinetics / bioavailability in jugular vein cannulated Wistar rats; type: in vivo; settings: 10 mg/kg, Wistar rats (n=5), Mean
Experimental: Bioavailability of 1-(2-thien-2′-yl-2-oxo-ethyl)-3-(methanesulfonyl hydrazine carbonyl) pyridinium compound was checked using formulations as given in Table 2.
The assessment of oral pharmacokinetics was carried out. […] The blood samples were withdrawn at pre-determined time points; pre-dose (0.0 hr), 0.25, 0.5, 1, 2, 4, 6, 8, 12 and 24 hrs post dose. Plasma obtained at each time point was subjected to quantification of 1-(2-thien-2′-yl-2-oxo-ethyl)-3-(methanesulfonyl hydrazine carbonyl) pyridinium compound. LC-MS/MS method was used for the quantification of 1-(2-thien-2′-yl-2-oxo-ethyl)-3-(methanesulfonyl hydrazine carbonyl) pyridinium compound using an internal standard. The plasma samples were analyzed using solid phase extraction techniques in the calibration range of 0.500 ng/mL to 1000.000 ng/mL.
Data were presented with Mean±SD (standard deviation) and compared with 1-(2-thien-2′-yl-2-oxo-ethyl)-3-(methanesulfonyl hydrazine carbonyl) pyridinium compound PK data obtained after oral administration of solution of 1-(2-thien-2′-yl-2-oxo-ethyl)-3-(methanesulfonyl hydrazine carbonyl) pyridinium chloride in water under similar conditions.

Substance	bioavailability [1]	effect on cardiomyopathy and nephropathy [2]	oral bioavailability [3]	safety and tolerability [4]	AUClast [5] [ng·h/mL]	Cmax [5] [ng/mL]
1-(2-thien-2′-yl-2-oxo-ethyl)-3-(methanesulfonyl hydrazine carbonyl) pyridinium bromide	very low					
1-(2-thien-2′-yl-2-oxo-ethyl)-3-(methanesulfonyl hydrazine carbonyl) pyridinium chloride		improve cardiomyopathy and nephropathy	very low	safe and well tolerated	222.86	85.764
